The subject of assay [1] is Histamine Induced Bronchoconstriction. The assay is described as follows: Histamine Induced Bronchoconstriction in the Anaesthetised Guinea Pig. Format: in vivo, guinea pig (Dunkin-Hartley). The following applies: Cavia porcellus, po, 1 h; p.o.; histamine infusion 10 μgkg^-1 min^-1 one hour after dosing. The source says:
Histamine Induced Bronchoconstriction in the Anaesthetised Guinea Pig
(§1) Following oral administration of test compound or vehicle by oral gavage, male Dunkin-Hartley guinea pigs (350-400 g) were anaesthetised by intraperitoneal injection of 60 mgkg^-1 sodium pentobarbitone (Sagatal, May & Baker UK). Through a midline incision of the neck, the trachea was cannulated and connected to a small animal respirator (Harvard, UK). Animals were artificially ventilated at a rate of 30 breaths per minute with a tidal volume of 8-10 ml to give a resting tracheal inflation pressure of 15 mmHg as measured by a physiological pressure transducer (type P23XL, Spectramed USA) connected to a side arm of the respiratory circuit.
A jugular vein was cannulated for the administration of propranolol and for the infusion of histamine. A carotid artery was cannulated for the measurement of arterial blood pressure via a physiological pressure transducer (type P23XL, Spectramed USA). Blood pressure and tracheal inflation pressure were recorded on a thermal array chart recorder (type TA4000, Gould Electronics UK).
Following a suitable equilibration period, propranolol (1 mgkg^-1 i.v. & 3 mgkg^-1 s.c. Sigma Chemical Co. UK) was administered to inhibit any resulting catecholamine release following histamine administration.
Histamine infusion (10 μgkg^-1 min^-1 at a rate of 10 mlhr^-1 using a perfusion pump type Perfuser securer FT, B. Braun Germany) was started at the one hour time point following oral administration of the test compound or vehicle. Changes in tracheal inflation pressure and blood pressure of drug treated animals were compared with changes from vehicle treated animals and ED50 values determined. One dose of test compound was investigated per animal.

The test system of assay [2] is PAF Induced Bronoconstriction. The assay can be described thus: PAF Induced Bronoconstriction in the Anaesthetised Guinea Pig. Type of assay: in vivo, guinea pig (Dunkin-Hartley). The note with it: Cavia porcellus, po, 1 h; p.o.; PAF 100 ngkg^-1 i.v. bolus one hour after dosing; read-out: ED50 (PAF induced bronchoconstriction). As to the method:
PAF Induced Bronoconstriction in the Anaesthetised Guinea Pig
as §1, with “or vehicle,” for “or vehicle by oral gavage,”, “(Harvard, UK)” for “(Harvard, UK).”, “tidal” for “tidal volume”
A jugular vein was cannulated for the administration of a bolus dose of propranolol and for the later administration of bolus PAF. A carotid artery was cannulated for the measurement of arterial blood pressure via a physiological pressure transducer (type P23XL, Spectramed USA). Blood pressure and tracheal inflation pressure were recorded on a thermal array chart recorder (type TA4000, Gould Electronics UK).
Propranolol (1 mgkg^-1 i.v. & 3 mgkg^-1 s.c. Sigma Chemical Co. UK) was administered 10 minutes before PAF in order to prevent the bronchodilatory activity of catecholamines which may be released in response to PAF administration. PAF (100 ngkg^-1 i.v. bolus) was administered at the one hour time point following oral administration of the test compound or vehicle.
Changes in tracheal inflation pressure and blood pressure of drug treated animals were compared with changes from vehicle treated animals and percentage inhibition determined. One dose of test compound was investigated per animal.

Structures are written as SMILES.

One may read the ED50 as the dose at which the effect has come halfway, by size or by number of responders. On to `Cc1nc2cnccc2n1Cc1ccc(C(=O)N(C/C=C/c2cccc(/C(=C/CN3CCCC3)c3ccc(Cl)cc3)n2)C2CCCCC2)cc1` [Example 20, N-Cyclohexyl-4-(1H-2-methylimidazo[4,5-c]pyridin-1-ylmethyl)-N-{3-[6-(3-pyrrolidin-1-yl-1-{4-chlorophenyl}-prop-1E-enyl)-pyridin-2-yl]-prop-2E-enyl}-benzamide], for which the ED50 in assay [1] was 1 mg/kg; in assay [2], 4.2 mg/kg.

The values are drawn from US5866588A, “Imidazopyridine derivatives” (British Biotech Pharmaceuticals Ltd., priority 1995, dated 1999).
